{"source": "patent US11186534B2", "about": "“Derivatives of sulindac can protect normal cells against oxidative damage” (University of South Alabama, priority 2017, dated 2021)", "key": {"[1]": {"target": "PDE10 (Homo sapiens, UniProt Q9Y233)", "sequence (Q9Y233 whole entry)": "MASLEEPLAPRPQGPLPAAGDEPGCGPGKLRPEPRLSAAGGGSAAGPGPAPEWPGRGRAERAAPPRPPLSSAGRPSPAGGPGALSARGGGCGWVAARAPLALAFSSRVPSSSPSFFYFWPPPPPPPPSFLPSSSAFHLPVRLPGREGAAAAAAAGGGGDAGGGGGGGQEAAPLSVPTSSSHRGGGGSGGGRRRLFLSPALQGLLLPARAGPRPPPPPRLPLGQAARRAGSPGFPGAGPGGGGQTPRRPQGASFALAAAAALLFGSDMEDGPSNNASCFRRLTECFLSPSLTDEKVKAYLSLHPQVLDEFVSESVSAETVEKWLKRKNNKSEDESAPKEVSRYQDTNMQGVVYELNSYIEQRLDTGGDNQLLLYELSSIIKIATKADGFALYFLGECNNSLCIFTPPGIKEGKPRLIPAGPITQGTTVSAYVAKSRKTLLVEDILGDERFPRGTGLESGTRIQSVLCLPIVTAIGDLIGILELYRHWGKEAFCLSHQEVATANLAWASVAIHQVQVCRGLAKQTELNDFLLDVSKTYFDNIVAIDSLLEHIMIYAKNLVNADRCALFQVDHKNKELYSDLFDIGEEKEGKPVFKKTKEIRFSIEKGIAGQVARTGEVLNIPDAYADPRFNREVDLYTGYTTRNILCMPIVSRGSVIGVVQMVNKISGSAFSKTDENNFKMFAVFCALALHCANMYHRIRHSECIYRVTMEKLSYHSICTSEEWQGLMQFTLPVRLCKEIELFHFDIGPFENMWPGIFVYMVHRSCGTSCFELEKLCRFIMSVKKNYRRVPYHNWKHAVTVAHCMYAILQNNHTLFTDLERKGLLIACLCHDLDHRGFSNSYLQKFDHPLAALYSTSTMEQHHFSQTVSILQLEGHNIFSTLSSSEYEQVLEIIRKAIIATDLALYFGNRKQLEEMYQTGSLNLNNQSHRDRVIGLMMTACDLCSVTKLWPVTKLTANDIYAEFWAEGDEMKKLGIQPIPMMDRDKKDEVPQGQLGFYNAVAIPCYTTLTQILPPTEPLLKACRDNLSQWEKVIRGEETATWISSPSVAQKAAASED", "assay": "IMAP fluorescence polarization PDE assay, PDE10", "format": "biochemical", "conditions": "FIG. 5B", "protocol": "(§1) PDE activity was measured using the IMAP fluorescence polarization PDE assay (Molecular Devices) in which the binding of hydrolyzed fluorescent cyclic nucleotide substrate to the IMAP reagent increases fluorescence polarization. Each well of a 96-well nonbinding plate contained 0.25 mg/mL of recombinant enzyme preparations. Enzymes were incubated with COMPOUND 9 or vehicle (DMSO) for 30 min at 30° C. before the addition of a substrate mixture containing 25 nmol/L of fluorescein-cGMP. The DMSO final concentration for each experiment was 2%. After 90 min of incubation at 30° C., the reaction was terminated by the addition of binding reagent. The maximum Fluorescence polarization was measured using a Synergy4 (BioTek) plate reader."}, "[2]": {"tested_on": "rat intact hearts (Langendorff model)", "assay": "Langendorff model of ischemia/reperfusion injury, LDH release", "format": "in vivo, Sprague Dawley rats", "protocol": "The ex vivo Langendorff procedure is a well-established preparation used to investigate heart physiology, ischemia/reperfusion injury, and other cardiovascular insults (23, 24; also see, e.g., reference 22). Sprague Dawley rats (275-325g) were administered either no drug or Compound 9 daily (at 0.7 mg/kg) for a total of two days (two administrations in total). Forty-eight hours after the start of drug exposure, hearts were removed and exposed to 45 min no flow ischemia and 2 h reperfusion in the Langendorff model (hearts were first equilibrated in KHB buffer for 10 min and then subjected to 45 min ischemia followed by 2 h reperfusion with KHB buffer), in the absence of drug.\nIn LDH and TTC assays for the Langendorff Preparation, coronary effluent samples (500 μL) from the Langendorff preparation were obtained upon attachment of excised heart, every 15 min before ischemia, immediately after 45 min ischemia, and at 15 min intervals during reperfusion. LDH was measured (using a Cytotox-96 nonradioactive cytotoxicity assay kit (Promega), with the absorbance read at 490 nm). Immediately upon completion, the heart was sliced into 2-mm cross-sectional pieces and slices were incubated for 30 min with 1% 2,3,5-triphenyl tetrazolium chloride (TTC) stain in Krebs-Henseleit buffer (KHB) (pH=7.4) at 37° C. to distinguish between viable (red) and nonviable (white) tissue. Tissue slices were stored overnight in 10% formaldehyde before measurement of infarct size using NIH-Image J software.\nThe protective (preconditioning) effect of Compound 9 was evaluated in an art-recognized Langendorff model of ischemia/reperfusion injury. Compound 9 was administered via i.p. injection to test animals daily for two days, and animal hearts were then removed for performance of the Langendorff procedure (described above and known in the art)."}, "[3]": {"target": "T1, ovine COX-1 (Ovis aries, UniProt P05979)", "T1 construct": "purchased Cayman Chemical 700100", "T1 sequence (P05979 25-600)": "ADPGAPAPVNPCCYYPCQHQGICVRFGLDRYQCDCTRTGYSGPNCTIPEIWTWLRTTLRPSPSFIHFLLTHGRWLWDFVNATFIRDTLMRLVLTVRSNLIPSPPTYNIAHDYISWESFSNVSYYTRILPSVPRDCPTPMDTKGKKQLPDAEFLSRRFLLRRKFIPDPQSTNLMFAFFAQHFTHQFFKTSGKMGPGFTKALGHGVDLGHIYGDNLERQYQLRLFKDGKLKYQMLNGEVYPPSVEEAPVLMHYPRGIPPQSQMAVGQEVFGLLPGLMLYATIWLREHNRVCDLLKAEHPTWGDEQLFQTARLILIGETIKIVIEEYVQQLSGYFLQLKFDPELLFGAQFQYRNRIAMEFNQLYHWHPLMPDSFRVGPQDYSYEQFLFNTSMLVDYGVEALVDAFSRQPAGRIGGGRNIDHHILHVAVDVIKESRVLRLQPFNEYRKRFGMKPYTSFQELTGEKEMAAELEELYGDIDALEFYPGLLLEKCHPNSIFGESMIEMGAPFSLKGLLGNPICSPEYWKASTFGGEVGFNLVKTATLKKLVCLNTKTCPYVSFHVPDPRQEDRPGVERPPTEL", "assay": "COX Fluorescent Inhibitor Screening assay, COX-1", "format": "biochemical", "conditions": "FIG. 4A", "protocol": "Compounds were assayed for cyclooxygenase (COX) inhibition using the COX Fluorescent Inhibitor Screening Kit from Cayman Chemical (Item #: 700100). Briefly, COX enzyme (ovine COX-1 or human recombinant COX-2) diluted in 1× reaction buffer is incubated with the compound or DMSO control for 20 min at 25° C. in a half-area 96-well black microplate. Background wells are also included that contained no enzyme. Added to each well were heme B, to ensure enzyme activity, and 10-acetyl-3,7-dihydroxyphenoxazine (ADHP) assay reagent. After the 20 min incubation, arachidonic acid (AA) substrate was added to all wells. As shown by the schematic diagram below, active COX enzyme converts AA to hydroperoxy endoperoxide (PGG2). Catalyzed by the secondary peroxidase activity of COX, ADHP can react with PGG2 to form a highly fluorescent compound, resorufin. Fluorescence was measured with a […] excitation wavelength and a 585-595 nm emission wavelength. Decreased fluorescence relative to the DMSO control indicates COX inhibition. See, also, Piazza G A, Keeton A B, Tinsley H N, Gary B D, Whitt J D, Mathew B, Thaiparambil J, Coward L, Gorman, G, Li Y, Sani B, Hobrath J V, Maxuitenko Y Y and Reynolds R C. […] Cancer Prevention Research 2009; 2: 572-580."}, "[4]": {"target": "PDE5 (Homo sapiens, UniProt O76074)", "assay": "IMAP fluorescence polarization PDE assay, PDE5", "format": "biochemical", "conditions": "FIG. 5A", "protocol": "as §1"}, "[5]": {"conditions": "0.7 mg/kg i.p. daily for 48 h, FIG. 9"}}, "data": [{"smiles": "COc1cc2c(cc1OC)/C(=C\\c1cc(OC)c(OC)c(OC)c1)C(C)=C2CC(=O)O", "note": "[Compound 9, (Z)-2-(5,6-dimethoxy-2-methyl-1-(3,4,5-trimethoxybenzylidene)-1H-inden-3-yl)acetic acid]", "values": [{"measurement": "IC50", "setting": "[1]", "value": "~7", "unit": "µM"}, {"measurement": "Protective effect during the 45 min ischemia phase", "setting": "[2]; [5]", "value": "robust protective effect"}, {"measurement": "Protective effect during the 2 h reperfusion phase", "setting": "[2]; [5]", "value": "robust protective effect"}, {"measurement": "LDH levels vs no drug control", "setting": "[2]; 2 h reperfusion, 0.7 mg/kg daily for 48 h, FIG. 7", "value": "decrease in LDH levels"}, {"measurement": "Levels of LDH released vs no drug", "setting": "[2]; after 45 min no flow ischemia, 0.7 mg/kg daily for 48 h, FIG. 7", "value": "significantly lower"}, {"measurement": "COX-1 inhibition: fold less potent than sulindac sulfide (SS)", "setting": "[3]", "value": "≥ 20", "unit": "×"}, {"measurement": "IC50", "setting": "[4]", "value": "~32", "unit": "µM"}]}]}
